Experimental data from patent publication US20240092778A1, “TOPICAL PHARMACEUTICAL COMPOSITIONS AND METHODS” (PYRAMID BIOSCIENCES, INC., priority 2020, published 2024).
Where two headings read alike, the source gives them in different places.

Columns and labels:
human skin = test: Cumulative irritant patch test (RIPT, 21 days) in healthy participants; settings: occlusive patch, healthy subjects
From the text: The objective of this study was to assess the primary irritancy potential of Compound A mesylate Topical Cream in human skin using a Repeat Insult Patch Testing (RIPT) over twenty-one (21) days.
This RIPT was an open-label, single-arm (cell), randomized, evaluator-blinded study wherein test products were applied under an occlusive dressing to the upper back or upper arm continuously and repeatedly to the same site for a period of 21 days. Three concentrations of The Cream described in Example 13 (0.1%, 0.03%, 0.01%) and Vehicle (Placebo Cream—0%) were applied to the skin of healthy subjects aged 18-70 with a Fitzpatrick Skin Type of I-III. In addition, one site was treated with 0.4 ml of 0.25% sodium lauryl sulfate (SLS) as a positive control and another site was treated with a plain Webril patch (cotton cloth) which served as a negative control. The total daily dose of Compound A received by each subject was 560 μg (0.4 ml of each of the three concentrations/3 different sites) or approximately 8 μg/kg. The evaluator graded the level of irritation for each test site at every study visit and was blinded as to the identity of the test products. The targeted sample size was at least 25 subjects (n=25) at completion.
Approximately 0.4 ml of each test material was spread uniformly onto a 15 mm diameter circular disc of non-absorbing cotton cloth (Webril) using micropipettes or plastic tuberculin syringes. The treated circular disc was applied to the designated skin site (see Randomization Section below) measuring 15 mm in diameter on the upper arm or upper back. In addition to the test products, one site was treated with 0.4 ml of 0.25% sodium lauryl sulfate (SLS) as a positive control and another site was treated with a plain Webril patch (cotton cloth) as a negative control. Each site was covered with an occlusive tape (Blenderm, 3M) and the entire patch fastened to the skin with Scanpor or Hypafix Tape to ensure intimate contact with the skin. The initial patch was applied on Day 0 and grading began on Day 1.
Subjects returned to the testing facility once daily (Monday to Friday). […] Subjects were questioned and assessed for adverse events as well as any changes in their health or concomitant medications at every study visit. […]
All patches were inspected at each study visit and adhesion issues were noted when present. Patch sites were inspected and irritant reactions provoked during the study were recorded daily (Monday-Friday). […]
The CII was calculated for each product as well as the positive and negative control sites. The CII is the ratio calculated by dividing the sum of the cumulative irritation scores (SCS) from all subjects by the number of subjects in the completed panel×the maximum tolerated score per patch site (3)×the number of grading assessments (15).

[1] = Solubility of Compound A mesylate salt Form B in excipients and buffers; type: physicochemical
Experimental: The solubility was determined visually. The approximate amount of drug dissolved was calculated as mg/g of compound soluble in each solvent tested.
The steps involved in performing the solubility study were as follows: • a) Label scintillation vials appropriately for each excipient that were tested. • b) Stir bar was placed in each vial and weighed the empty vial containing stir bar and cap with inert liner. Recorded the TARE weight. • c) Approximately 5.0 g of each excipient was weighed into the designated vial and approximately 5 mg of the API (Compound A mesylate salt) was added to into each vial. • d) All the closed vials were placed on a multi-position stir plate and allowed to mix for at least 15 minutes at ambient conditions. • e) Visually inspected to see if the API has completely dissolved. • f) If the API has dissolved, the last 3 steps were repeated. Additional API aliquots added to the mixture were recorded till saturation solubility reached. […] Stirring the solutions was continued overnight at ambient temperature to confirm solubility is maintained. • g) If API has not completely dissolved, continue stirring samples overnight at ambient conditions. • h) The final weight of the vial, cap, stir bar, and sample were recorded. • i) Further, the final observations were recorded as needed to document the observations.

[2] = tested on: Primary human keratinocytes; test: Human primary keratinocytes proliferation assay (BrdU incorporation); type: cell-based; settings: for IC50: Homo sapiens, Keratinocyte, read-out: calculated potency (IC50) to block cell proliferation
Experimental: Primary human keratinocytes (KMF112410A) were grown in 96-well plates and exposed to different concentration of Compound A mesylate salt, 0.1 nM to 100 μM, for 24 hours or 72 hours.
After 4 hours, the medium was removed and 100 μL of the Fixing/Denaturing solution (paraformaldehyde) was added to each well and allowed to incubate at room temperature for 30 minutes. After 30 minutes, the fixing solution was removed and 100 μl of the prepared 1× detection antibody (Cell Signaling Assay Kit, Catalogue No. 6813) was added to each well and allowed to incubate at room temperature for 1 hour. The plate was then washed 3 times with prepared wash buffer (details of wash buffer; PBS saline).
After washing, 100 μL of the prepared 1× Horseradish Peroxidase (HRP)-conjugated secondary antibody solution was added to each well and allowed to incubate at room temperature for 30 minutes. The plate was then washed 3 times with prepared wash buffer.
After washing the 100 μL 3,3′,5,5′-Tetramethylbenzidine (TMB) substrate was added to each well and incubated 30 minutes at room temperature. After 30 minutes, 100 μL of stop solution ([…]) was added to each well and the absorbance was read at 450 nm using a microplate Reader SpectraMax iD3 (Molecular Devices). The magnitude of the absorbance for the developed color is proportional to the quantity of BrdU incorporated into cells, which is a direct indication of cell proliferation, and negative control (50% supplemented keratinocyte growth medium alone) was used as reference to evaluate cell proliferation inhibition (levels <100%) or activation (levels >100%).

[3] = Dog oral toxicity studies (one-month); type: in vivo; settings: in vivo, one-month study
From the text: (§1) Toxicity evaluation of Compound A mesylate salt has comprised range-finding and pivotal repeat dose dermal and oral toxicology studies in minipigs, rats and dogs. The dermal route of administration was chosen because it is the intended to be the human therapeutic route. As per International Council for Harmonisation (ICH) guidelines, the oral route was selected in rats and dogs to assess systemic toxicity and to support dermal administration. The minipig was selected as the species for formal dermal toxicology testing of Compound A mesylate salt.
(§2) The NOAEL for the one-month study was 2 mg/kg/day.

dogs = test: Dog oral toxicity studies (one-month); type: in vivo
From the text: as §1, §2

[4] = Drug excipient compatibility study (physical appearance, % label claim, total impurities); type: physicochemical
Experimental: The goal of the drug excipient compatibility study was to identify excipients that are incompatible with the Compound A mesylate salt (Form B), resulting in high impurity growth compared to the baseline (To). The compatibility of the compound in selected excipients was assessed by mixing the compound with individual excipients and placing the mixtures on stability studies for 2 or 4 weeks at 25° C./60% RH and 40° C./75% RH. If the compound was insoluble in any excipient, the sample was prepared by first dissolving Compound A mesylate salt in a solvent (purified water) and then mixing with the excipient in a 1:1 ratio. A stock solution of the Compound A mesylate salt in water (0.45% w/w) was used. The total level of impurities over 4 weeks at the two stability conditions were measured.
Physical appearance of Drug-Excipient mixture was evaluated visually, and the observations were recorded which are summarized in Table 2.
In summary, the compound was stable when mixed with the following chemicals: isopropyl myristate, ethanol, medium chain triglycerides, light mineral oil, cyclomethicone, white petrolatum, span 80, glycerin, sorbitol solution 70%, HPMC, HPC, and stearyl alcohol.

[5] = One-month rat oral toxicity study; type: in vivo; settings: in vivo, oral, for the myocardial findings
From the text: as §1
(§3) The NOAEL for these findings was 0.5 mg/kg/day.

rats = test: One-month rat oral toxicity study; type: in vivo
From the text: as §1, §3

guinea pigs = test: Contact sensitization; type: in vivo, guinea pig
rabbits = test: Skin irritation (erythema and edema); type: in vivo, rabbit
[6] = 28-day repeat dose dermal toxicity study; type: in vivo, minipig; settings: Gottingen, minipig, in vivo, topical or ocular; for Cmax / AUC(0-t): 1 mg/kg/day dermal, Day 28; for AUC(0-t): read-out: AUC0-Tlast
From the text: as §1
(§4) To support dermal administration of Compound A mesylate, in addition to oral repeat-dose toxicity studies in rats and dogs, dermal toxicity studies in minipigs were conducted. A 28-day repeat dose toxicity study was conducted by dermal application of Compound A mesylate salt at doses in the range of 0.1 mg/kg to 1 mg/kg.
(§5) The 28-day dose toxicity study was initiated at doses in the range of 0.1 to 1.0 mg/kg.

Gottingen Minipigs = test: 28-day repeat dose dermal toxicity study; type: in vivo, minipig
From the text: as §1, §4, §5

minipigs = test: Non-GLP 7-day intravenous study; type: in vivo, minipig; settings: daily for 7 days
Experimental: To understand the relationship between potential Compound A mesylate exposure and toxicity (clinical observations), a non-GLP intravenous study was conducted. In this study, minipigs were administered up to 10 mg/kg daily for 7 days by intravenous administration to determine Compound A mesylate exposure and clinical observations. Overall, minipigs tolerated intravenous dose of up to 10 mg/kg/day for 7 seven days without any adverse clinical signs.

bovine cornea = test: Bovine corneal opacity and permeability (BCOP) assay
TRKC = biological target: T1, TRKC (Homo sapiens, UniProt Q16288); test: TRKC activity in cell-based system overexpressing wild-type full-length receptor; settings: cell-based systems overexpressing wild-type, human TRK receptors
T1 construct: in cell-based systems overexpressing wild-type, full-length, human TRK receptors; expressed in transfected cells
From the text: (§6) Compound A is a highly specific pan-TRK inhibitor with a mechanism of action that is competitive with the adenosine triphosphate (ATP) binding site of TRKA.

TRKA = biological target: T2, TRKA (Homo sapiens, UniProt P04629); test: TRKA inhibition in cells (IC50); type: cell-based; settings: read-out: half maximal inhibitory concentration (IC50) for TRKA
T2 construct: host or cells: cells, not specified
From the text: as §6

[7] = tested on: adults with recurrent glioblastoma multiforme (GBM); settings: up to 60 mg daily; cited from earlier work
TRKB = biological target: T3, TRKB (Homo sapiens, UniProt Q16620); test: TRKB activity in cell-based system overexpressing wild-type full-length receptor; settings: cell-based systems overexpressing wild-type, human TRK receptors
T3 construct: in cell-based systems overexpressing wild-type, full-length, human TRK receptors; expressed in transfected cells
From the text: as §6

[8] = tested on: Primary human keratinocytes; settings: at their respective concentration (Dox 1 μM) after 24 and 72 hours of exposure
Experimental: Cell death/apoptosis was determined by Propidium Iodide (PI) and Annexin V staining.
For the cell death/apoptosis, human primary neonatal keratinocytes were cultured (5,000 cells/well) in clear bottom 96-well plates overnight. The next morning, growth medium was removed and replaced with 50% supplemented keratinocyte growth medium containing compounds and controls.
After 24 or 72 hours treatment, 200 μL of the prepared 1:100 Annexin V (Biovision, catalog number K101) and PI in 1× binding buffer solution was added to each of the wells and allowed to incubate at room temperature for 5 minutes. Cells were then washed with DPBS (Dulbecco's Phosphate-Buffered Saline) and fixed for 30 minutes in 2% Paraformaldehyde (PFA). Following fixation, cells were washed 3× with 200 μL of DPBS. A final volume of 100 μL of DPBS were added to the wells. Quantification of Annexin V and PI were assessed using the Array Scan High Content Imaging System (ThermoFisher).
The signal quantified for Annexin V, an early apoptosis event marker (FIG. 5) and PI to assess cell death (apoptosis and necrosis) was compared to negative control (50% supplemented media) to determine the percentage of viability (FIG. 6).

[9] = T = 0 (Table 3a, 25° C./60% RH)
[10] = T = 0 (Table 3b, 40° C./75% RH)

T1 sequence (Q16288 32-839): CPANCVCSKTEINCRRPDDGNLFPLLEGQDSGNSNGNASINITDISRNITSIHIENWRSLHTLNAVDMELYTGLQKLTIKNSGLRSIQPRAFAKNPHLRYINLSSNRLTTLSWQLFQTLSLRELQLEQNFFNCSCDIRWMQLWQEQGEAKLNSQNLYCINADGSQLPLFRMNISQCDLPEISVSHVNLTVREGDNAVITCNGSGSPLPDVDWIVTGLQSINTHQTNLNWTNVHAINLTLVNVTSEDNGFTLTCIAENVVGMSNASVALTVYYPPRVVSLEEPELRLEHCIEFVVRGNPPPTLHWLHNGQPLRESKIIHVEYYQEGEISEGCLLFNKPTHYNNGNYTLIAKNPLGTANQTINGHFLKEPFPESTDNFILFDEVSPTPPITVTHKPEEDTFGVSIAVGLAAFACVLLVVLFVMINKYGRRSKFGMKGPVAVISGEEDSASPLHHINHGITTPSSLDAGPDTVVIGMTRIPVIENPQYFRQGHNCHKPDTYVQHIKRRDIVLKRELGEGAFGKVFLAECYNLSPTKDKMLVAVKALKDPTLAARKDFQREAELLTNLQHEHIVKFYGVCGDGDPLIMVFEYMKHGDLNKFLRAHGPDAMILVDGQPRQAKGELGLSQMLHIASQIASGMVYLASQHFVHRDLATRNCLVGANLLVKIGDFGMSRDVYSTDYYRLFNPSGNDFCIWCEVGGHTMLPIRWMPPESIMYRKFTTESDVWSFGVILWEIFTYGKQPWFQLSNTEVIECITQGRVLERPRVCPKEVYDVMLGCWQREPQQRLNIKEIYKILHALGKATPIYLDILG
T3 sequence (Q16620 32-822): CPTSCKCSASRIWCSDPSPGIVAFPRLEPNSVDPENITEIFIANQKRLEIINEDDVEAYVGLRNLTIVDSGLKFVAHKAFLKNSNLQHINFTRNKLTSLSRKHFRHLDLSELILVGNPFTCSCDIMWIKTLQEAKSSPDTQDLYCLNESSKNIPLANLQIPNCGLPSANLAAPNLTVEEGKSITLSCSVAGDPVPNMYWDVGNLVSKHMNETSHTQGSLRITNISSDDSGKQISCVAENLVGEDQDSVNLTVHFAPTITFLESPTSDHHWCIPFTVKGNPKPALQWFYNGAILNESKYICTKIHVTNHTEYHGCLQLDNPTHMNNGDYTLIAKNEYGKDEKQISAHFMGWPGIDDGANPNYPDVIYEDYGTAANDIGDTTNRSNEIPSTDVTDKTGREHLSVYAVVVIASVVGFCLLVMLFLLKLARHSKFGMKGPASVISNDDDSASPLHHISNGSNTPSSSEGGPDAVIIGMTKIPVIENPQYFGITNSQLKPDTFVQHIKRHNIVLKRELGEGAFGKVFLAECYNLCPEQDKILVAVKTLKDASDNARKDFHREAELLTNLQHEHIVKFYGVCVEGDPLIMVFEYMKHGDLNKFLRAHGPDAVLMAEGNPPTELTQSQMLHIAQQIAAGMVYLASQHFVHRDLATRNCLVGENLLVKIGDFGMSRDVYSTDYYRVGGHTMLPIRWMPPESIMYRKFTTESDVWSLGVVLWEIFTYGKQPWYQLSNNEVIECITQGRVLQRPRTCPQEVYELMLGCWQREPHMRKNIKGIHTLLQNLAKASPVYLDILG
T2 sequence (P04629 33-796): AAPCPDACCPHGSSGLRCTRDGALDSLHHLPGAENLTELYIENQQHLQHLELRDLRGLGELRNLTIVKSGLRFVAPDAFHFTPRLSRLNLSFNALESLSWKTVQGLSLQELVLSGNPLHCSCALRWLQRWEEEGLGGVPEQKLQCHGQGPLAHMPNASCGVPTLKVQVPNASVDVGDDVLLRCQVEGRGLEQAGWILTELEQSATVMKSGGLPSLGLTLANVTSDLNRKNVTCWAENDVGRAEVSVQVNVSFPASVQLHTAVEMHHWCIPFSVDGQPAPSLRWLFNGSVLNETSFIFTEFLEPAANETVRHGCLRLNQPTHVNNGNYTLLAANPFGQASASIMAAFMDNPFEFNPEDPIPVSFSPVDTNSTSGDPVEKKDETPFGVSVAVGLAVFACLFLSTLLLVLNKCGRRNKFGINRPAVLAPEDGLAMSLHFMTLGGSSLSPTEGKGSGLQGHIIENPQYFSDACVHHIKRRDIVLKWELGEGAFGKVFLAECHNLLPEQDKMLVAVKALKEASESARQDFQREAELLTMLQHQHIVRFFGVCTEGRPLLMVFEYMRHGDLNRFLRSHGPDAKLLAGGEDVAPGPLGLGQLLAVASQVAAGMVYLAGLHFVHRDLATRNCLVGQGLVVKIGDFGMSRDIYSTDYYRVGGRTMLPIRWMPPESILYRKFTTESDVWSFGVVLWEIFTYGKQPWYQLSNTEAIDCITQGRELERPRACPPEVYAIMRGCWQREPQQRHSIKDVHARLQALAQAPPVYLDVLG

CCCCCCCCCCCCOS(=O)(=O)[O-].[Na+] [0.25% Sodium Lauryl Sulfate, sodium lauryl sulfate]
Cumulative Irritation Index (CII) (human skin): 0.24
Mean Cumulative Irritation Score (human skin): 10.89
Mean Daily Score (human skin): 0.73
Sum of Cumulative Scores (human skin): 294

CC(C)Oc1cc(-n2cnc3ccc(N[C@@H](C)c4ncc(F)cn4)nc32)n[nH]1.CS(=O)(=O)O [Compound A mesylate salt, N-[(1S)-1-(5-fluoropyrimidin-2-yl)ethyl]-3-(5-isopropoxy-1H-pyrazol-3-yl)-3H-imidazo[4,5-b]pyridin-5-amine mesylate]
Solubility ([1]; in Ethanol, 24 hours at room temperature, visual): ≥6.61 mg/g
water solubility ([1]; in water): ~9.5 % w/w
Observation ([1]; solubility study in Citrate buffer (pH 5.6)): Aggregated
Observation ([1]; solubility study in Ethanol): Solubilized
Observation ([1]; solubility study in Phosphate buffer (pH 7.4)): Aggregated
IC50 ([2]; 24 hours): 1250 nM
IC50 ([2]; 72 hours): 97 nM
dose showing significant inhibition of proliferation ([2]; after 24 hours of treatment): ≥ 100 nM
dose showing significant inhibition of proliferation ([2]; after 72 h treatment): ≥ 10 nM
NOAEL at 1 month [3]: 2 mg/kg/day
effects on body weight, food consumption, clinical pathology, or histopathology (dogs): no compound-related effects
tolerability (dogs; episodes of emesis and soft/fluid feces): generally well tolerated
% Label Claim [4, 9]: 99.9%
Total Impurities (%) [4, 9]: 0.00%
% Label Claim [4, 10]: 99.9%
Total Impurities (%) [4, 10]: 0.00%
% Label Claim ([4]; T = 2 weeks, 25° C./60% RH): 99.2%
Total Impurities (%) ([4]; T = 2 weeks, 25° C./60% RH): 0.00%
% Label Claim ([4]; T = 2 weeks, 40° C./75% RH): 99.7%
Oxidation Adjusted ([4]; T = 2 weeks, 40° C./75% RH): 0.00
Total Impurities (%) ([4]; T = 2 weeks, 40° C./75% RH): 0.00%
% Label Claim ([4]; T = 4 weeks, 25° C./60% RH): 100.5%
Total Impurities (%) ([4]; T = 4 weeks, 25° C./60% RH): 0.00%
% Label Claim ([4]; T = 4 weeks, 40° C./75% RH): 99.1%
Oxidation Adjusted ([4]; T = 4 weeks, 40° C./75% RH): 0.00
Total Impurities (%) ([4]; T = 4 weeks, 40° C./75% RH): 0.00%
NOAEL at 1 month [5]: 0.5 mg/kg/day
histopathological findings (rats): myocardial inflammation, fibrosis and increased plasma phosphate and Troponin I in a minority of animals
food consumption and body weight gain (rats; all dose levels): marked increase
contact sensitization (guinea pigs): not considered to be contact sensitizers
irritation (erythema and edema) (rabbits): non-irritant
NOAEL at 28 days ([6]; both sexes, dermal, 28 days): 1 mg/kg/day
Cmax ([6]; female, females): 2.52 ng/mL
AUC(0-t) ([6]; female, females): 37.2 ng·h/mL
Cmax ([6]; male, males): 3.03 ng/mL
AUC(0-t) ([6]; male, males): 32.6 ng·h/mL
tolerability of dermal application (Gottingen Minipigs; 0.1, 0.3, and 1 mg/kg/day for 28 consecutive days): well tolerated
systemic exposure after dermal administration compared to intravenous administration (Gottingen Minipigs; minipigs): significantly lower
tolerated intravenous dose without any adverse clinical signs (minipigs): up to 10 mg/kg/day
ocular irritation (bovine cornea): did not induce ocular irritation

CC(C)Oc1cc(-n2cnc3ccc(N[C@@H](C)c4ncc(F)cn4)nc32)n[nH]1 [Compound A, N-[(1S)-1-(5-fluoropyrimidin-2-yl)ethyl]-3-(5-isopropoxy-1H-pyrazol-3-yl)-3H-imidazo[4,5-b]pyridin-5-amine]
in-vitro activity against TRKC, concentration (TRKC): below 5 nM
IC50 (TRKA): 0.2 nM
early efficacy signals in GBM patients [7]: No early efficacy signals
in-vitro activity against TRKB, concentration (TRKB): below 5 nM

COC(=O)[C@@]1(O)C[C@H]2O[C@]1(C)n1c3ccccc3c3c4c(c5c6ccccc6n2c5c31)C(=O)NC4 [Compound K252a]
cell death (Annexin V / PI) versus negative control [8]: significant cell death
